Consider 18 compounds from patent publication US8969360B2, “Compounds useful as inhibitors of ATR kinase” (Vertex Pharmaceuticals Incorporated, priority 2013, dated 2015).

Structures are written as SMILES. pKi: −log10 of the molar value.

One assay addresses T1, ATR kinase (Homo sapiens, UniProt Q13535).
T1 construct: Assays were carried out at 25° C. in the presence of 5 nM full-length ATR
Put plainly: ATR Inhibition Assay (radioactive-phosphate incorporation). Format: biochemical. The settings on record: Ki(app); 5 nM full-length ATR, 10 μM ATP, 800 μM target peptide, 25° C. Here is the method: Compounds were screened for their ability to inhibit ATR kinase using a radioactive-phosphate incorporation assay. Assays were carried out in a mixture of 50 mM Tris/HCl (pH 7.5), 10 mM MgCl2 and 1 mM DTT. Final substrate concentrations were 10 μM [γ-33P]ATP (3 mCi 33P ATP/mmol ATP, Perkin Elmer) and 800 μM target peptide (ASELPASQPQPFSAKKK (SEQ. ID NO: 1)).
Assays were carried out at 25° C. in the presence of 5 nM full-length ATR. An assay stock buffer solution was prepared containing all of the reagents listed above, with the exception of ATP and the test compound of interest. 13.5 μL of the stock solution was placed in a 96 well plate followed by addition of 2 μL of DMSO stock containing serial dilutions of the test compound (typically starting from a final concentration of 15 μM with 3-fold serial dilutions) in duplicate (final DMSO concentration 7%). The plate was pre-incubated for 10 minutes at 25° C. and the reaction initiated by addition of 15 μL [γ-33P]ATP (final concentration 10 μM).
The reaction was stopped after […] by the addition of 30 μL, 0.1M phosphoric acid containing 2 mM ATP. A multiscreen phosphocellulose filter 96-well plate (Millipore, Cat no. MAPHN0B50) was pretreated with 100 μL 0.2M phosphoric acid prior to the addition of 45 μL of the stopped assay mixture. The plate was washed with 5×200 μL 0.2M phosphoric acid. After drying, 100 μL Optiphase ‘SuperMix’ liquid scintillation cocktail (Perkin Elmer) was added to the well prior to scintillation counting (1450 Microbeta Liquid Scintillation Counter, Wallac).
After removing mean background values for all of the data points, Ki(app) data were calculated from non-linear regression analysis of the initial rate data using the Prism software package (GraphPad Prism version 3.0cx for Macintosh, GraphPad Software, San Diego Calif., USA).
Compounds with a Ki value of <0.01 μM are marked with “+++.” Compounds with a Ki value >0.01 μM but <1 μM are marked with “++.” Compounds with a Ki value >1 μM but <5 μM are marked with “+.”

The test system of assay [1] is HCT116 colorectal cancer cells. Nature of the assay: Cisplatin Sensitization Assay (96 h cell viability MTS). The note with it: concentration of compound required to reduce the IC50 of Cisplatin alone by at least 3-fold; HCT116, 96 h MTS. It counts as cell-based. Here is the method: Compounds can be screened for their ability to sensitize HCT116 colorectal cancer cells to Cisplatin using a 96 h cell viability (MTS) assay. […] Compounds and Cisplatin are then both added simultaneously to the cell media in 2-fold serial dilutions from a top final concentration of 10 μM as a full matrix of concentrations in a final cell volume of 200 μl, and the cells are then incubated at 37° C. in 5% CO2. After 96 h, 40 μl of MTS reagent (Promega G358a) is added to each well and the cells are incubated for 1 h at 37° C. in 5% CO2. Finally, absorbance is measured at 490 nm using a SpectraMax Plus 384 reader (Molecular Devices) and the concentration of compound required to reduce the IC50 of Cisplatin alone by at least 3-fold (to 1 decimal place) can be reported.
Compounds with a Cisplatin sensitization value of <0.02 μM are marked with “+++.” Compounds with a Cisplatin sensitization value>0.02 μM but <0.2 μM are marked with “++.” Compounds with a Cisplatin sensitization value >0.2 μM but <5 μM are marked with “+.”

T1 sequence (Q13535 whole entry): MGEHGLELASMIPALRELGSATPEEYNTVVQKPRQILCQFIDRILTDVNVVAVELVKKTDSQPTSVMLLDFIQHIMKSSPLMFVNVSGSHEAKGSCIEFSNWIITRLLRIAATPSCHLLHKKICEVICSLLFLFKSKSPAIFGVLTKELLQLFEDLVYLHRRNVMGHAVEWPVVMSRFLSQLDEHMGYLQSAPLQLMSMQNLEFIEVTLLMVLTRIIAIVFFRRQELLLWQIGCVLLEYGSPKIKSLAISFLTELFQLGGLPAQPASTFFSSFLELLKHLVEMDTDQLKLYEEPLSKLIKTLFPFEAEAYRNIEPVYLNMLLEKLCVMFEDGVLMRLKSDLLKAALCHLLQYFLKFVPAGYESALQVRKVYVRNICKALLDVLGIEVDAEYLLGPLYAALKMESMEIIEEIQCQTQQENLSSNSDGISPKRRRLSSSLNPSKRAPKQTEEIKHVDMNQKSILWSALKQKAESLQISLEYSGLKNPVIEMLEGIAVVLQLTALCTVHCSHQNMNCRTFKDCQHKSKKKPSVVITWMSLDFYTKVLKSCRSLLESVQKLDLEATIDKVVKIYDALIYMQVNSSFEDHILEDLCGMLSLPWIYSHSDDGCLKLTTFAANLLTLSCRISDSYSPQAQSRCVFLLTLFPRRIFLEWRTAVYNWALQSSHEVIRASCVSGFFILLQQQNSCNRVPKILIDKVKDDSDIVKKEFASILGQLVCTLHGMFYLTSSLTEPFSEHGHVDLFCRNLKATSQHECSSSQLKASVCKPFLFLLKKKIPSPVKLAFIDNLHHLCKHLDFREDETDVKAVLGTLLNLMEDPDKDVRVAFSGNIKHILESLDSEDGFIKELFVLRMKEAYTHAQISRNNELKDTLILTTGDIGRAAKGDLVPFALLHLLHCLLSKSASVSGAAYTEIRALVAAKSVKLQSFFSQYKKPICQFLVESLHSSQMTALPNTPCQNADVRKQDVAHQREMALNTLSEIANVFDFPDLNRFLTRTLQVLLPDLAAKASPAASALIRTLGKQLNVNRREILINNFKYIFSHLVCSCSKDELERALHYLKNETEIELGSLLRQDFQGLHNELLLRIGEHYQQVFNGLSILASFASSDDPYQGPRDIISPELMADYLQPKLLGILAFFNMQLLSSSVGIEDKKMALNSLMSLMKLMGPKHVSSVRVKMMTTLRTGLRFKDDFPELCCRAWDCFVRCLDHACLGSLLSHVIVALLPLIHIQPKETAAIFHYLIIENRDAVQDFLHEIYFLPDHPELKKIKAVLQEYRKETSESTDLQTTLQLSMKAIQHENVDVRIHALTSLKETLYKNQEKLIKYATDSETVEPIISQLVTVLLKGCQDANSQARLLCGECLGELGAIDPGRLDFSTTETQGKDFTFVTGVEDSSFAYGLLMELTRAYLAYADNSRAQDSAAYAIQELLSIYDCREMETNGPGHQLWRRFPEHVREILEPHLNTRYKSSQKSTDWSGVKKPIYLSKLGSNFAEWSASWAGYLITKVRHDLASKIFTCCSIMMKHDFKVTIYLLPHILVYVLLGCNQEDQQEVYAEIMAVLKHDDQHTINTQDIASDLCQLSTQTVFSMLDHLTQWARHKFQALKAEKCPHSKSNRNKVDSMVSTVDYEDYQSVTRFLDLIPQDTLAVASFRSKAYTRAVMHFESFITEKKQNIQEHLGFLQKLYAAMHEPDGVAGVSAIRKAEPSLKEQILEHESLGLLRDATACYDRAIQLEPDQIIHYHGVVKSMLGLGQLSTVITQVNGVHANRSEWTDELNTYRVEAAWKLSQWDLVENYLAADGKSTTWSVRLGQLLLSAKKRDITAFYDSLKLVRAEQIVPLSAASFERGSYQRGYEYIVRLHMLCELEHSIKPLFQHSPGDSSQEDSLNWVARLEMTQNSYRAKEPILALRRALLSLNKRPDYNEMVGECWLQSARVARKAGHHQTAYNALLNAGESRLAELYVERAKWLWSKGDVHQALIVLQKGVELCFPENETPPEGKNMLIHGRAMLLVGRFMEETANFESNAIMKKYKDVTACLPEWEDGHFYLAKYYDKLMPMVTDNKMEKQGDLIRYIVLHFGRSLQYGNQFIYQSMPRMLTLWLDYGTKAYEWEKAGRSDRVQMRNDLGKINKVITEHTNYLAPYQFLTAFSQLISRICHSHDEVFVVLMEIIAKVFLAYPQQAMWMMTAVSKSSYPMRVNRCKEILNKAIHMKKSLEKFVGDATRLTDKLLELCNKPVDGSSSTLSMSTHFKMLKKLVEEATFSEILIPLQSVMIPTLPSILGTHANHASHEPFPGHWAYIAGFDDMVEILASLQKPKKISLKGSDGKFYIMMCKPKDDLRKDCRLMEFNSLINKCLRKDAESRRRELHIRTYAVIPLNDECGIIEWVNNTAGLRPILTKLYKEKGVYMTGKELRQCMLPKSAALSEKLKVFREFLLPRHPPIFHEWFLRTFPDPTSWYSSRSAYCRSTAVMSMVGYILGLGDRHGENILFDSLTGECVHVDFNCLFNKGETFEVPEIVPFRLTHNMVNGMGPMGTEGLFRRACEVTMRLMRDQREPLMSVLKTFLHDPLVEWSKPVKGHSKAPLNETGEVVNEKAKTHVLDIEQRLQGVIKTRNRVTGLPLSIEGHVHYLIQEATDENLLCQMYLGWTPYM

Usually pKi stands for −log10 of the Ki, conventionally taken in molar units. For `CCOc1ccncc1NC(=O)c1c(N)nn2ccc(C(F)(F)F)nc12` [I-O-2, 2-amino-N-(4-ethoxypyridin-3-yl)-5-(trifluoromethyl)pyrazolo[1,5-a]pyrimidine-3-carboxamide], the pKi at ATR kinase is above 8.00. The “Synergy with Cisplatin” value in assay [1] is “+++ (Compounds with a Cisplatin sensitization value of <0.02 μM are marked with “+++.”)”.
In the same order, the values of `Nc1nn2ccc(C(F)(F)F)nc2c1C(=O)Nc1cnccc1OCCCO` [I-O-14, 2-amino-N-(4-(3-hydroxypropoxy)pyridin-3-yl)-5-(trifluoromethyl)pyrazolo[1,5-a]pyrimidine-3-carboxamide] are above 8.00 and “+++ (Compounds with a Cisplatin sensitization value of <0.02 μM are marked with “+++.”)”.
The matching figures for `Nc1nn2ccc(C(F)(F)F)nc2c1C(=O)Nc1cnccc1OC1CC2(CNC2)C1` [I-O-32, N-(4-(2-azaspiro[3.3]heptan-6-yloxy)pyridin-3-yl)-2-amino-5-(trifluoromethyl)pyrazolo[1,5-a]pyrimidine-3-carboxamide]: 6.00 to 8.00 and “++ (Compounds with a Cisplatin sensitization value>0.02 μM but <0.2 μM are marked with “++.”)”.
In the same order, the values of `COc1ccncc1NC(=O)c1c(N)nn2ccc(C(F)(F)F)nc12` [I-O-1, 2-amino-N-(4-methoxypyridin-3-yl)-5-(trifluoromethyl)pyrazolo[1,5-a]pyrimidine-3-carboxamide] are above 8.00 and “+++ (Compounds with a Cisplatin sensitization value of <0.02 μM are marked with “+++.”)”.
Regarding `COc1ccncc1NC(=O)c1c(N)nn2ccc(NCCN(C)C)nc12` [I-O-70, 2-amino-5-((2-(dimethylamino)ethyl)amino)-N-(4-methoxypyridin-3-yl)pyrazolo[1,5-a]pyrimidine-3-carboxamide], the pKi on ATR kinase was 6.00 to 8.00. Besides, the “Synergy with Cisplatin” value in assay [1] is recorded as “+ (Compounds with a Cisplatin sensitization value >0.2 μM but <5 μM are marked with “+.”)”.
Turning to `CNCc1ccn2nc(N)c(C(=O)Nc3cnccc3OC)c2n1` [I-O-66, 2-amino-N-(4-methoxypyridin-3-yl)-5-((methylamino)methyl)pyrazolo[1,5-a]pyrimidine-3-carboxamide], at ATR kinase, the pKi was 6.00 to 8.00. In addition, in assay [1], the “Synergy with Cisplatin” value is “++ (Compounds with a Cisplatin sensitization value>0.02 μM but <0.2 μM are marked with “++.”)”.
In the same order, the values of `CN(C)CCCOc1ccncc1NC(=O)c1c(N)nn2ccc(C(F)(F)F)nc12` [I-O-27, 2-amino-N-(4-(3-(dimethylamino)propoxy)pyridin-3-yl)-5-(trifluoromethyl)pyrazolo[1,5-a]pyrimidine-3-carboxamide] are 6.00 to 8.00 and “++ (Compounds with a Cisplatin sensitization value>0.02 μM but <0.2 μM are marked with “++.”)”.
In the same order, the values of `COc1ccncc1NC(=O)c1c(N)nn2ccc(N3CCN(C)CC3)nc12` [I-O-78, 2-amino-N-(4-methoxypyridin-3-yl)-5-(4-methylpiperazin-1-yl)pyrazolo[1,5-a]pyrimidine-3-carboxamide] are 6.00 to 8.00 and “+ (Compounds with a Cisplatin sensitization value >0.2 μM but <5 μM are marked with “+.”)”.
In the same order, the values of `COc1ccncc1NC(=O)c1c(N)nn2ccc(OC3CCCN(C)C3)nc12` (stereo not drawn) [I-O-58, 2-amino-N-(4-methoxypyridin-3-yl)-5-((1-methylpiperidin-3-yl)oxy)pyrazolo[1,5-a]pyrimidine-3-carboxamide] are 6.00 to 8.00 and “++ (Compounds with a Cisplatin sensitization value>0.02 μM but <0.2 μM are marked with “++.”)”.
As to `COc1cc(C)ncc1NC(=O)c1c(N)nn2ccc(C(F)(F)F)nc12` [I-O-46, 2-amino-N-(4-methoxy-6-methylpyridin-3-yl)-5-(trifluoromethyl)pyrazolo[1,5-a]pyrimidine-3-carboxamide], on ATR kinase, the pKi was 6.00 to 8.00. In assay [1], the “Synergy with Cisplatin” value is given as “++ (Compounds with a Cisplatin sensitization value>0.02 μM but <0.2 μM are marked with “++.”)”.
The matching figures for `Nc1nn2ccc(C(F)(F)F)nc2c1C(=O)Nc1cnccc1OC1CNC1` [I-O-18, 2-amino-N-(4-(azetidin-3-yloxy)pyridin-3-yl)-5-(trifluoromethyl)pyrazolo[1,5-a]pyrimidine-3-carboxamide]: 6.00 to 8.00 and “++ (Compounds with a Cisplatin sensitization value>0.02 μM but <0.2 μM are marked with “++.”)”.
In the same order, the values of `CN(C)CCOCCOc1ccncc1NC(=O)c1c(N)nn2ccc(C(F)(F)F)nc12` [I-O-36, 2-amino-N-(4-(2-(2-(dimethylamino)ethoxy)ethoxy)pyridin-3-yl)-5-(trifluoromethyl)pyrazolo[1,5-a]pyrimidine-3-carboxamide] are 6.00 to 8.00 and “++ (Compounds with a Cisplatin sensitization value>0.02 μM but <0.2 μM are marked with “++.”)”.
On to `COc1ccncc1NC(=O)c1c(N)nn2ccc(N3CCNC(C)C3)nc12` (stereo not drawn) [I-O-77, 2-amino-N-(4-methoxypyridin-3-yl)-5-(3-methylpiperazin-1-yl)pyrazolo[1,5-a]pyrimidine-3-carboxamide], for which the pKi at ATR kinase was 6.00 to 8.00. Further, the “Synergy with Cisplatin” value in assay [1] is on record as “++ (Compounds with a Cisplatin sensitization value>0.02 μM but <0.2 μM are marked with “++.”)”.
In the same order, the values of `COc1ccncc1NC(=O)c1c(N)nn2ccc(OC3COC3)nc12` [I-O-56, 2-amino-N-(4-methoxypyridin-3-yl)-5-(oxetan-3-yloxy)pyrazolo[1,5-a]pyrimidine-3-carboxamide] are 6.00 to 8.00 and “+++ (Compounds with a Cisplatin sensitization value of <0.02 μM are marked with “+++.”)”.
The matching figures for `CN(C)[C@H]1C[C@@H](Oc2ccncc2NC(=O)c2c(N)nn3ccc(C(F)(F)F)nc23)C1` [I-O-34, 2-amino-N-(4-((1s,3s)-3-(dimethylamino)cyclobutoxy)pyridin-3-yl)-5-(trifluoromethyl)pyrazolo[1,5-a]pyrimidine-3-carboxamide]: 6.00 to 8.00 and “++ (Compounds with a Cisplatin sensitization value>0.02 μM but <0.2 μM are marked with “++.”)”.
The matching figures for `CC(C)Oc1ccncc1NC(=O)c1c(N)nn2ccc(C(F)(F)F)nc12` [I-O-4, 2-amino-N-(4-isopropoxypyridin-3-yl)-5-(trifluoromethyl)pyrazolo[1,5-a]pyrimidine-3-carboxamide]: 6.00 to 8.00 and “+++ (Compounds with a Cisplatin sensitization value of <0.02 μM are marked with “+++.”)”.
On to `COc1ccncc1NC(=O)c1c(N)nn2ccc(NCCN3CCCC3)nc12` [I-O-72, 2-amino-N-(4-methoxypyridin-3-yl)-5-((2-(pyrrolidin-1-yl)ethyl)amino)pyrazolo[1,5-a]pyrimidine-3-carboxamide], for which, on ATR kinase, the pKi was 6.00 to 8.00. In assay [1], the “Synergy with Cisplatin” value was “+ (Compounds with a Cisplatin sensitization value >0.2 μM but <5 μM are marked with “+.”)”.
The matching figures for `Nc1nn2ccc(C(F)(F)F)nc2c1C(=O)Nc1cnccc1OC1CCNCC1` [I-O-41, 2-amino-N-(4-(piperidin-4-yloxy)pyridin-3-yl)-5-(trifluoromethyl)pyrazolo[1,5-a]pyrimidine-3-carboxamide]: 6.00 to 8.00 and “++ (Compounds with a Cisplatin sensitization value>0.02 μM but <0.2 μM are marked with “++.”)”.
